Literature values as cited in patent publication US9980959B2, “Method and composition for treating rhinitis” (Biolipox AB, priority 2004, dated 2018).

Experiments:
[1] = mist administered to the lung with a nebulizer
[2] = nasal spray

Q: For O=C(O)COCCN1CCN(C(c2ccccc2)c2ccc(Cl)cc2)CC1 (stereo not shown) [cetirizine, [2-{4-[(4-chlorophenyl)-phenylmethyl]-1-piperazinyl}ethoxy]acetic acid], which “Effect on symptoms in perennial allergic rhinitis” value (nasal spray 0.625, 1.25, 2.5 mg/mL three times a day for two weeks) is on record?
A: Some effect

Q: And the “Incidence of side effects (nasal events)” value (nasal spray versus placebo)?
A: no difference in incidence between the placebo and the cetirizine-treated groups

Q: What about the “Protective effect in exercise-induced asthma” value [1] of the same compound?
A: good protective effect

Q: What about the “Symptoms and nasal peak flow after an allergen challenge” value [2] of the same compound?
A: reduce symptoms and increase nasal peak flow
